Test results taken from article PMC3927474, “Whole body synthesis rates of DHA from α-linolenic acid are greater than brain DHA accretion and uptake rates in adult rats” (Journal of Lipid Research, 2014).

Columns and labels:
Assay in all cases: Brain gene expression (TLDA qPCR)
Type in all cases: in vivo, rat
Conditions in all cases: 15 wk diet; control diet = 1
15-lipoxygenase = tested on: 15-lipoxygenase
Description: (§1) RNA was extracted from the flash-frozen half brains of the 15 week postweaning rats. The brain was briefly thawed and dissected to isolate the brainstem, cerebellum, cortex, hippocampus, striatum, and the rest of the brain. RNA was extracted from the brain regions using Trizol reagent (Ambion; Life Technologies, Burlington, ON, Canada) according to the manufacturer's protocol. […] Chloroform was added to the Trizol reagent at a ratio of 1:5 (chloroform:Trizol reagent) and the solution was mixed and incubated at room temperature. The solution was then centrifuged at 12,000 g for 15 min at 4°C. […] The samples were then centrifuged at 12,000 g for 10 min at 4°C to precipitate the RNA pellet. […] The pellet was allowed to air dry, and was then dissolved in RNase-free water. A Nanodrop 1000 (NanoDrop Technologies Inc., Wilmington, DE) was used to determine the concentration and purity of each sample by measuring absorbance at 260 and 280 nm. Each sample was aliquoted to make 1 μg of RNA per 10 μl of sample and stored at -80°C. A high-capacity cDNA reverse transcription kit (Applied Biosystems, Burlington, ON, Canada) was used to reverse transcribe 1 μg of RNA according to the manufacturer's instructions. Newly synthesized cDNA was stored at -20°C until the following day when it was loaded onto TaqMan low density array (TLDA) plates. Quantitative real-time PCR was performed using TLDA (Applied Biosystems) on the 7900HT real-time PCR system (Applied Biosystems). cDNA (50 ng) was diluted with water to make a volume of 50 μl and mixed with 50 μl of TaqMan Universal PCR Master Mix (Applied Biosystems). The mixture was then loaded onto a customized preconfigured 384-well TLDA plate according to the manufacturer's protocol. TaqMan gene expression assays were used to assess 21 genes that were previously reported to be differentially expressed with n-3 deprivation. […] All genes were normalized to phosphoglycerate kinase 1. Similar results were found when normalizing to β-actin or 18S rRNA.

COX-2 = tested on: COX-2
Description: as §1

[1] = tested on: epidermal growth factor receptor
Description: as §1

group 6 iPLA2 = tested on: group 6 iPLA2
Description: as §1

group 4 cPLA2 = tested on: group 4 cPLA2
Description: as §1

PPARg = tested on: PPARg
Description: as §1

[2] = tested on: brain-derived neurotrophic factor
Description: as §1

transthyretin = tested on: transthyretin
Description: as §1

retnoid X receptor β = tested on: retnoid X receptor β
Description: as §1

heme oxygenase 1 = tested on: heme oxygenase 1
Description: as §1

[3] = tested on: vesicular monoamine transporter 2
Description: as §1

group 2a sPLA2 = tested on: group 2a sPLA2
Description: as §1

β-actin = tested on: β-actin
Description: as §1

dopamine receptor D2 = tested on: dopamine receptor D2
Description: as §1

TNF-α receptor member 1a = tested on: TNF-α receptor member 1a
Description: as §1

tyrosine hydroxylase = tested on: tyrosine hydroxylase
Description: as §1

α-synuclein = tested on: α-synuclein
Description: as §1

CC/C=C\C/C=C\C/C=C\CCCCCCCC(=O)O [ALA, α-linolenic acid]
Brainstem gene expression: 15 LOX (15-lipoxygenase): 0.91 RQ
Cerebellum gene expression: 15 LOX (15-lipoxygenase): 0.63 RQ
Cortex gene expression: 15 LOX (15-lipoxygenase): 0.77 RQ
Hippocampus gene expression: 15 LOX (15-lipoxygenase): 0.74 RQ
Rest of brain gene expression: 15 LOX (15-lipoxygenase): 0.62 RQ
Striatum gene expression: 15 LOX (15-lipoxygenase): 1.00 RQ
Brainstem gene expression: COX 2 (COX-2): 0.87 RQ
Cerebellum gene expression: COX 2 (COX-2): 1.46 RQ
Cortex gene expression: COX 2 (COX-2): 1.17 RQ
Hippocampus gene expression: COX 2 (COX-2): 1.15 RQ
Rest of brain gene expression: COX 2 (COX-2): 0.92 RQ
Striatum gene expression: COX 2 (COX-2): 1.04 RQ
Brainstem gene expression: EGFR [1]: 1.05 RQ
Cerebellum gene expression: EGFR [1]: 1.26 RQ
Cortex gene expression: EGFR [1]: 0.94 RQ
Hippocampus gene expression: EGFR [1]: 1.10 RQ
Rest of brain gene expression: EGFR [1]: 1.06 RQ
Striatum gene expression: EGFR [1]: 1.00 RQ
Brainstem gene expression: iPLA2 (group 6 iPLA2): 0.89 RQ
Cerebellum gene expression: iPLA2 (group 6 iPLA2): 1.02 RQ
Cortex gene expression: iPLA2 (group 6 iPLA2): 0.92 RQ
Hippocampus gene expression: iPLA2 (group 6 iPLA2): 1.02 RQ
Rest of brain gene expression: iPLA2 (group 6 iPLA2): 0.95 RQ
Striatum gene expression: iPLA2 (group 6 iPLA2): 0.96 RQ
Brainstem gene expression: cPLA2 (group 4 cPLA2): 0.98 RQ
Cerebellum gene expression: cPLA2 (group 4 cPLA2): 1.17 RQ
Cortex gene expression: cPLA2 (group 4 cPLA2): 0.93 RQ
Hippocampus gene expression: cPLA2 (group 4 cPLA2): 1.10 RQ
Rest of brain gene expression: cPLA2 (group 4 cPLA2): 0.85 RQ
Striatum gene expression: cPLA2 (group 4 cPLA2): 1.04 RQ
Brainstem gene expression: PPARg (PPARg): 0.91 RQ
Cerebellum gene expression: PPARg (PPARg): 1.17 RQ
Cortex gene expression: PPARg (PPARg): 1.21 RQ
Hippocampus gene expression: PPARγ (PPARg): 0.47 RQ
Rest of brain gene expression: PPARg (PPARg): 1.18 RQ
Striatum gene expression: PPARg (PPARg): 0.90 RQ
Brainstem gene expression: BDNF [2]: 0.72 RQ
Cerebellum gene expression: BDNF [2]: 0.98 RQ
Cortex gene expression: BDNF [2]: 1.03 RQ
Hippocampus gene expression: BDNF [2]: 1.03 RQ
Rest of brain gene expression: BDNF [2]: 0.99 RQ
Striatum gene expression: BDNF [2]: 1.01 RQ
Brainstem gene expression: TTR (transthyretin): 0.93 RQ
Cerebellum gene expression: TTR (transthyretin): 1.75 RQ
Cortex gene expression: TTR (transthyretin): 0.75 RQ
Hippocampus gene expression: TTR (transthyretin): 6.67 RQ
Rest of brain gene expression: TTR (transthyretin): 0.71 RQ
Striatum gene expression: TTR (transthyretin): 2.37 RQ
Brainstem gene expression: RXRb (retnoid X receptor β): 1.15 RQ
Cerebellum gene expression: RXRb (retnoid X receptor β): 1.04 RQ
Cortex gene expression: RXR b (retnoid X receptor β): 1.02 RQ
Hippocampus gene expression: RXR b (retnoid X receptor β): 0.97 RQ
Rest of brain gene expression: RXR b (retnoid X receptor β): 0.91 RQ
Striatum gene expression: RXRb (retnoid X receptor β): 1.10 RQ
Brainstem gene expression: HO1 (heme oxygenase 1): 1.01 RQ
Cerebellum gene expression: HO1 (heme oxygenase 1): 1.21 RQ
Cortex gene expression: HO1 (heme oxygenase 1): 1.05 RQ
Hippocampus gene expression: HO1 (heme oxygenase 1): 1.01 RQ
Rest of brain gene expression: HO1 (heme oxygenase 1): 1.00 RQ
Striatum gene expression: HO1 (heme oxygenase 1): 1.09 RQ
Brainstem gene expression: VMAT2 [3]: 1.34 RQ
Hippocampus gene expression: VMAT 2 [3]: 0.84 RQ
Rest of brain gene expression: VMAT2 [3]: 1.12 RQ
Brainstem gene expression: sPLA2 (group 2a sPLA2): 0.72 RQ
Cerebellum gene expression: sPLA2 (group 2a sPLA2): 0.86 RQ
Cortex gene expression: spla2 (group 2a sPLA2): 0.85 RQ
Hippocampus gene expression: sPLA2 (group 2a sPLA2): 1.08 RQ
Rest of brain gene expression: sPLA2 (group 2a sPLA2): 0.67 RQ
Striatum gene expression: sPLA2 (group 2a sPLA2): 0.46 RQ
Brainstem gene expression: b-actin (β-actin): 1.11 RQ
Cerebellum gene expression: b actin (β-actin): 1.10 RQ
Cortex gene expression: b actin (β-actin): 1.05 RQ
Hippocampus gene expression: B-actin (β-actin): 1.13 RQ
Rest of brain gene expression: b actin (β-actin): 1.00 RQ
Striatum gene expression: b actin (β-actin): 1.04 RQ
Brainstem gene expression: DR D2 (dopamine receptor D2): 0.96 RQ
Cerebellum gene expression: DR D2 (dopamine receptor D2): 1.13 RQ
Cortex gene expression: DR D2 (dopamine receptor D2): 1.11 RQ
Hippocampus gene expression: DR D2 (dopamine receptor D2): 1.27 RQ
Rest of brain gene expression: DR D2 (dopamine receptor D2): 1.00 RQ
Striatum gene expression: DR D2 (dopamine receptor D2): 1.20 RQ
Brainstem gene expression: TNFaR1a (TNF-α receptor member 1a): 1.30 RQ
Cerebellum gene expression: TNFaR1a (TNF-α receptor member 1a): 1.12 RQ
Cortex gene expression: TNFaR1a (TNF-α receptor member 1a): 1.11 RQ
Hippocampus gene expression: TNFa R 1a (TNF-α receptor member 1a): 1.14 RQ
Rest of brain gene expression: TNFaR1a (TNF-α receptor member 1a): 0.95 RQ
Striatum gene expression: TNFaR1a (TNF-α receptor member 1a): 0.98 RQ
Brainstem gene expression: TH (tyrosine hydroxylase): 1.24 RQ
Cerebellum gene expression: TH (tyrosine hydroxylase): 1.60 RQ
Cortex gene expression: TH (tyrosine hydroxylase): 1.56 RQ
Hippocampus gene expression: TH (tyrosine hydroxylase): 1.15 RQ
Rest of brain gene expression: TH (tyrosine hydroxylase): 1.09 RQ
Striatum gene expression: TH (tyrosine hydroxylase): 1.12 RQ
Brainstem gene expression: SNCa (α-synuclein): 0.95 RQ
Cerebellum gene expression: SNCa (α-synuclein): 0.96 RQ
Cortex gene expression: SNCa (α-synuclein): 1.08 RQ
Hippocampus gene expression: SNCa (α-synuclein): 1.10 RQ
Rest of brain gene expression: SNCa (α-synuclein): 0.97 RQ
Striatum gene expression: SNCa (α-synuclein): 1.05 RQ
